According to patent US10087466B2 (priority 2016, dated 2018):
Marks after values point to notes of the source that are not given here.

Legend:
Format in all cases: in vivo
Serum IgG and IgM = Serum IgG and IgM by turbidimetric inhibition immuno assay; details: pig serum; diet + 0.3 mg/kg Na2SeO3 or 0.14 mg/kg nanostructure; mean±SD
[1] = test system: pig antioxidative function; assay: Serum antioxidative function measurement (T-AOC, GPx, SOD, MDA) with kits; details: diet + 0.3 mg/kg Na2SeO3 or 0.14 mg/kg nanostructure, mean±SD
[2] = test system: Serum inflammatory cytokine TNF-α, IL-2 and IL-6; assay: Serum inflammatory cytokines (TNF-α, IL-2, IL-6) by ELISA; details: pig serum; diet + 0.3 mg/kg Na2SeO3 or 0.14 mg/kg nanostructure; mean±SD
weaned pigs = assay: Pig growth measurement (body weight, feed intake, feed/gain) in weaned pigs; details: mean±SD
[3] = day 28 to 67, diet + 0.3 mg/kg Na2SeO3 or 0.14 mg/kg nanostructure

O=[Se](O)O [sodium selenite]
IgG (Serum IgG and IgM): 2.66 ± 0.23^ab g/L | IgM (Serum IgG and IgM): 0.71 ± 0.07^a g/L | GPx [1]: 238.56 ± 13.07^a U/mL | MDA [1]: 3.31 ± 0.10^a nmol/mL | SOD [1]: 147.94 ± 5.89^a U/mL | T-AOC [1]: 2.51 ± 0.16^a U/mL | IL-2 [2]: 108.19 ± 10.26^ab ng/L | IL-6 [2]: 571.10 ± 38.62^ab ng/L | TNF-α [2]: 41.86 ± 4.50^ab ng/L | Final weight (weaned pigs; 67-day-old, basic diet + 0.3 mg/kg Na2SeO3 (group 1) or 0.14 mg/kg biogenic elemental selenium nanostructure (group 2)): 24.17 ± 0.76^a kg | Average daily feed intake (weaned pigs; [3]): 654.17 ± 37.64 g | Average daily gain (weaned pigs; [3]): 411.54 ± 20.63^a g | Feed/gain ratio (weaned pigs; [3]): 1.59 ± 0.01^b
